Measured values from US7521538B2, “Crystal structure of the ternary complex of 14-3-3/Fusicoccin/PMA and methods for designing new herbicides” (Max-Planck-Gesellschaft zur Foerderung der Wissenschaften …, priority 2003, dated 2009).
Positions count from the first letter of the chain named. Where two headings read alike, the source gives them in different places. Non-standard residues stand in square brackets, D forms with d. Residues, ends and D or L forms follow the SMILES beside them. pT = C[C@@H](OP(=O)(O)O)[C@H](N)C(=O)O

Legend:
[1] = molecular target: T1, binary 14-3-3/peptide complex (Nicotiana tabacum, UniProt P93343); assay: Isothermal titration calorimetry, FC titrated to 14-3-3c saturated with peptide; format: binding; conditions: ITC, 35° C., pH 6.5
T1 construct: Tobacco 14-3-3c (Gene bank AAC49892, amino acids 1-260 with an N-terminal His-tag); His-tag (N); made in house; host or cells: E. coli (14-3-3c); the phosphopeptide was synthesized by Biosyntan (Berlin)
T1 sequence (P93343 1-260): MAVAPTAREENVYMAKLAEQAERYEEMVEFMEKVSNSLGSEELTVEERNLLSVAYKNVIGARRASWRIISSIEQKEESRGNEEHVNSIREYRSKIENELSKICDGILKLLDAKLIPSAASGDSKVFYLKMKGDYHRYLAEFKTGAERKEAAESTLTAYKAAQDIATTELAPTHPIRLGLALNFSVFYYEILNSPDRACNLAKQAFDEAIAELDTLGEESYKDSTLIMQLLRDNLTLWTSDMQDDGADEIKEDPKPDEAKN
Procedure: (§1) In order to obtain more quantitative data with respect to the phosphorylated pentapeptide used in the structural analysis, thermodynamic constants were determined by means of isothermal titration calorimetry (ITC, 16).
(§2) Binding of ligands to 14-3-3c was measured with a MCS isothermal titration calorimeter (MicroCal Inc., Northampton). Ligands (fusicoccin 0.4 mM; phosphopbeptides 0.5 mM) were titrated in 8 to 20 μl steps by injection into solutions containing 14-3-3c (0.05 mM) alone or 14-3-3c saturated with one of the ligands in 25 mM HEPES buffer pH 6.5, 10 mM MgCl2, 5 mM CaCl2, 5 mM DTE at 35° C. Binding isotherms were fitted using a single binding site model and used to calculate the binding enthalpy (ΔH) and association constant (Ka) of the binding reaction. Dissociation constants (KD=1/Ka), Gibbs free energy changes (ΔG=−RTInKa) and entropy changes (TΔS=ΔH−ΔG) were calculated from ΔH and Ka. For the binding of peptide to a FC/14-3-3c complex, we also used non-saturating conditions of FC and observed two binding events which were fitted independently to K1 and K4. All measurements were repeated at least three times.

[2] = molecular target: T2, 14-3-3z N49Q / PMA-GST fusion construct (Homo sapiens, UniProt P63104, N42Q); assay: Far-western-blot overlay, 14-3-3 N49Q; format: binding; conditions: mutation N49Q
T2 construct: made in house
T2 sequence (P63104 1-245 N42Q): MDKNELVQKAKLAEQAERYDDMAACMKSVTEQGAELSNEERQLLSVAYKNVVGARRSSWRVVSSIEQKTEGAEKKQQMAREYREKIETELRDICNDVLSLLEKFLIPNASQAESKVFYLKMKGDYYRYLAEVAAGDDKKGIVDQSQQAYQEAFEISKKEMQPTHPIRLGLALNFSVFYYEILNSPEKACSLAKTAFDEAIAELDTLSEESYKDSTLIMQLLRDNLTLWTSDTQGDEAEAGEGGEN
Procedure: (§3) In order to study the functional relevance of selected amino acids within the above-described binding pocket, residues the following point mutants were analysed in respect FC binding: (a) N49Q, (b) D222E, (c) F126E and (d) I175E in the homologous sequence of human 14-3-3z. The mutant proteins were expressed, purified and FC binding were tested in an in vitro assay in the presence of the 66 C-terminal residues of a PMA-GST fusion construct.
(§4) For the detection of FC binding a far-western-blot (FIG. 4) was performed. In this in vitro assay, the PMA-GST fusion construct, containing the 66 C-terminal residues of PMA, was immobilised on a nitrocellulose membrane via electroblotting of SDS-PAGE-separated proteins. The interacting protein, a his-tagged 14-3-3 construct was allowed to react with the GST-fusion protein in an overlay-solution. The interaction of these two proteins was mediated by fusicoccin. […] The actual binding of the his-tagged 14-3-3 protein was visualized after washing the membrane by immunodetecton with an anti-His-antibody, which was employed as primary antibody.

[3] = molecular target: T3, 14-3-3z N49Q / GST-PMA2-CT66 (Homo sapiens, UniProt P63104, N42Q); assay: GST-pulldown, 14-3-3 N49Q; format: binding; conditions: pull-down, mutation N49Q
T3 construct: made in house
T3 sequence (P63104 1-245 N42Q): T2 sequence (P63104 1-245 N42Q)
Procedure: as §3
(§5) Alternatively, a second in-vitro method was used to screen for fusicoccin binding. In this pull-down assay (FIG. 5), the GST-PMA fusion protein is immobilized on GSH-sepharose-beads and the his-tagged 14-3-3 protein will bind in the presence of fusioccin to the GST-fusion protein and can subsequently be found in the sepharose-fraction after washing and centrifugation of the beads. The detection again takes place via SDS-PAGE and Western-Blotting with subsequent immunodetection.

[4] = Solubility of FC in aqueous solutions; format: physicochemical
[5] = molecular target: T4, 14-3-3c with phosphopeptide after removal of Val (Nicotiana tabacum, UniProt P93343); assay: ITC, FC binding to 14-3-3c with phosphopeptide lacking the C-terminal Val; conditions: peptide with C-terminal Val deleted, FIG. 3b lower panel
T4 construct: Tobacco 14-3-3c (Gene bank AAC49892, amino acids 1-260 with an N-terminal His-tag); His-tag (N); made in house; host or cells: E. coli (14-3-3c); the phosphopeptide was synthesized by Biosyntan (Berlin)
Procedure: as §2
(§6) PMA binding to-14-3-3 is unique in that the penultimate C-terminal residue is the phosphorylated threonine (YpTV-COOH). […] Taken together; this explains why there is no effect of FC on any other known 14-3-3-ligand interaction. To date, all plant proteins characterized as interacting directly with 14-3-3 homologs contain the consensus binding motifs with the notable exception of the plasma membrane H^+-ATPase. […]

[6] = molecular target: T5, 14-3-3z F126E / PMA-GST fusion construct (Homo sapiens, UniProt P63104, F117E); assay: Far-western-blot overlay, 14-3-3 F126E; format: binding; conditions: mutation F126E
T5 construct: made in house
T5 sequence (P63104 1-245 F117E): T2 sequence (P63104 1-245 N42Q) with Q42N, F117E
Procedure: as §3, §4

[7] = molecular target: T6, 14-3-3c preloaded with Gln-Ser-Tyr-pThr-Val-Pro (Nicotiana tabacum, UniProt P93343); assay: ITC, FC binding to 14-3-3c preloaded with C-terminally extended phosphopeptide; conditions: peptide with added C-terminal Pro, FIG. 3b upper panel
T6 construct: Tobacco 14-3-3c (Gene bank AAC49892, amino acids 1-260 with an N-terminal His-tag); His-tag (N); made in house; host or cells: E. coli (14-3-3c); the phosphopeptide was synthesized by Biosyntan (Berlin)
T6 sequence (P93343 1-260): T1 sequence (P93343 1-260)
Procedure: as §2, §6

[8] = molecular target: T7, 14-3-3z D222E / GST-PMA2-CT66 (Homo sapiens, UniProt P63104, D213E); assay: GST-pulldown, 14-3-3 D222E; format: binding; conditions: pull-down, mutation D222E
T7 construct: made in house
T7 sequence (P63104 1-245 D213E): T2 sequence (P63104 1-245 N42Q) with Q42N, D213E
Procedure: as §3, §5

[9] = molecular target: T8, 14-3-3c (Nicotiana tabacum, UniProt P93343); assay: Isothermal titration calorimetry, ligand binding to 14-3-3c alone; conditions: for binding of the toxin by itself to 14-3-3: unliganded 14-3-3, no peptide
T8 construct: Tobacco 14-3-3c (Gene bank AAC49892, amino acids 1-260 with an N-terminal His-tag); His-tag (N); made in house; host or cells: E. coli
T8 sequence (P93343 1-260): T1 sequence (P93343 1-260)
Procedure: as §1, §2

[10] = molecular target: T9, wild type 14-3-3 / PMA-GST fusion construct (66 C-terminal residues of PMA) (Homo sapiens, UniProt P63104); assay: Far-western-blot overlay, wild type 14-3-3; format: binding; conditions: 0, 500 nM and 1000 nM fusicoccin
T9 construct: made in house
T9 sequence (P63104 1-245): T2 sequence (P63104 1-245 N42Q) with Q42N
Procedure: as §3, §4

[11] = molecular target: T10, 14-3-3z I175E / PMA-GST fusion construct (Homo sapiens, UniProt P63104, I166E); assay: Far-western-blot overlay, 14-3-3 I175E; format: binding; conditions: mutation I175E
T10 construct: made in house
T10 sequence (P63104 1-245 I166E): T2 sequence (P63104 1-245 N42Q) with Q42N, I166E
Procedure: as §3, §4

[12] = molecular target: T11, 14-3-3-fusicoccin complex (Nicotiana tabacum, UniProt P93343); assay: Isothermal titration calorimetry, peptide binding to FC/14-3-3c complex; conditions: for increase of the binding affinity of the peptide by fusicoccin: complete binding cycle, ITC
T11 construct: Tobacco 14-3-3c (Gene bank AAC49892, amino acids 1-260 with an N-terminal His-tag); His-tag (N); made in house; host or cells: E. coli
T11 sequence (P93343 1-260): T1 sequence (P93343 1-260)
Procedure: as §1, §2

[13] = molecular target: T12, 14-3-3z I175E / GST-PMA2-CT66 (Homo sapiens, UniProt P63104, I166E); assay: GST-pulldown, 14-3-3 I175E; format: binding; conditions: pull-down, mutation I175E
T12 construct: made in house
T12 sequence (P63104 1-245 I166E): T2 sequence (P63104 1-245 N42Q) with Q42N, I166E
Procedure: as §3, §5

[14] = molecular target: T13, 14-3-3z D222E / PMA-GST fusion construct (Homo sapiens, UniProt P63104, D213E); assay: Far-western-blot overlay, 14-3-3 D222E; format: binding; conditions: mutation D222E
T13 construct: made in house
T13 sequence (P63104 1-245 D213E): T2 sequence (P63104 1-245 N42Q) with Q42N, D213E
Procedure: as §3, §4

[15] = molecular target: T14, 14-3-3z F126E / GST-PMA2-CT66 (Homo sapiens, UniProt P63104, F117E); assay: GST-pulldown, 14-3-3 F126E; format: binding; conditions: pull-down, mutation F126E
T14 construct: made in house
T14 sequence (P63104 1-245 F117E): T2 sequence (P63104 1-245 N42Q) with Q42N, F117E
Procedure: as §3, §5

[16] = molecular target: T15, 14-3-3 (Nicotiana tabacum, UniProt P93343); assay: Binding of non-phosphorylated peptide to 14-3-3 (not shown, method not stated)
T15 sequence (P93343 1-260): T1 sequence (P93343 1-260)
From the text: The phosphopeptide occupies the central binding groove of 14-3-3c in an extended conformation. The phosphate moiety of the phosphothreonine forms electrostatic interactions with a positively charged patch formed by residues Lys56, Arg63, and Arg136 and a H-bond to Tyr137 (FIG. 1b). […] Additionally, there are a number of H-bonds (cut-off limit 3.4 Å) between the peptide, mostly from the main-chain, and conserved protein side-chains. The peptide's C-terminal barboxylate is mostly contacted by basic residues and the side chains of the Val and Tyr residue flanking the phosphothreonine form van der Waals contacts to the protein (FIG. 1b). The structure confirms the notion that the C-terminal YTV-motif is highly conserved in plant P-type H^+-ATPases.

## C=CC(C)(C)OC[C@H]1O[C@H](O[C@@H]2C3=C([C@H](C)COC(C)=O)C[C@H](O)[C@]3(C)/C=C3/[C@@H](COC)CC[C@H]3[C@@H](C)[C@H]2O)[C@H](O)[C@@H](OC(C)=O)[C@@H]1O [Fusicoccin]
[1]
  Kd: 0.7 µM
[2]
  fusicoccin mediated PMA binding: strong reduction
[3]
  fusicoccin mediated PMA binding: strong reduction
[4]
  solubility in aqueous solutions: insolubility
[5]
  FC binding: drastically weakens the binding
[5]; listed as FC
  FC binding: significant lower binding affinity
[6]
  fusicoccin mediated PMA binding: complete inhibition of binding
[7]
  FC binding: drastically weakens the binding
[7]; listed as FC
  FC binding: severely impaired
[8]
  fusicoccin mediated PMA binding: strong reduction
[9]; calculated from K4 and K1×K2=K3×K4, read-out: affinity of FC to 14-3-3, more reliable value
  Kd: 66 µM
[9]; direct ITC determination, somewhat unreliable, read-out: affinity of FC to 14-3-3
  Kd: ~50 µM
[9]; listed as FC
  binding of the toxin by itself to 14-3-3: weak binding
[9]; listed as toxin
  binding of the toxin by itself to 14-3-3: binds only weakly
[10]
  fusicoccin mediated interaction of 14-3-3 with PMA-GST: interaction was only observed in the presence of fusicoccin
[11]
  fusicoccin mediated PMA binding: complete inhibition of binding
[12]
  increase of the binding affinity of the peptide by fusicoccin: 93 fold
[12]; listed as toxin
  increase of the binding affinity of the peptide by fusicoccin: more than 90 fold
[13]
  fusicoccin mediated PMA binding: complete inhibition of binding
[14]
  fusicoccin mediated PMA binding: strong reduction
[15]
  fusicoccin mediated PMA binding: complete inhibition of binding

## CC(C)[C@H](NC(=O)[C@@H](NC(=O)[C@H](Cc1ccc(O)cc1)NC(=O)[C@H](CO)NC(=O)[C@@H](N)CCC(N)=O)[C@@H](C)OP(=O)(O)O)C(=O)O [peptide, Gln-Ser-Tyr-pThr-Val] (H-QSY[pT]V-OH; N-terminus assumed)
[9]
  Kd: 2.5 µM
[9]; unliganded 14-3-3
  enthalpy (ΔH) of peptide binding: -41.8 kJ/mol
  −TAS of peptide binding: 7.11 kJ/mol
[12]; 14-3-3-FC complex
  enthalpy (ΔH) of peptide binding: -49.4 kJ/mol
  −TAS of peptide binding: 1.7 kJ/mol
[12]; after saturation of the binding site with FC, FIG. 3A
  binding between 14-3-3 and the peptide: much tighter

## Gln-Ser-Tyr-Thr-Val (QSYTV; printed: Gln-Ser-Tyr-Thr-Val) [non-phosphorylated version of the PMA2 C-terminal pentapeptide]
[16]
  binding to 14-3-3: binding could not be detected
